Measured values from patent US6800612B2, “S-nitrosothiols as agents for the treatment of circulatory dysfunctions” (Lacer, S.A., priority 2000, dated 2004).
Like-named read-outs stand apart in the source and are kept apart here. Values belong to the molecule of their own block, whether it stands above or below them.

Legend:
platelets = assay: Tests in vitro of the inhibition of the aggregation of the platelets (collagen 1 μg/mL); type: cell-based, human; conditions: for IC50: aggregation obtained with sub-maximal collagen concentration (1 μg/mL), read-out: IC50 (average ± SD), inhibition of the aggregation of the platelets; for inhibiting activity on platelets aggregation compared to the reference compound (GSNO): in words
From the text: Tests In Vitro of the Inhibition of the Aggregation of the Platelets. The method used in the assays is substantially the same as described in following references: Loscalzo J, et al. En: Methods in nitric oxide research (Feelisch M, Stamler JS, eds.) John Wiley & Sons, Chichester, England, pp 583-591. Radomski MW, et al. Br J Pharmacol 1987;92:181-187. […], et al. Br J Pharmacol 1994;112:1071-1076. […] The obtained results are compared to those from the S-nitrosoglutathione (GSNO), which is used as reference product.

arterial ring = assay: Tests for in vitro vasodilatation (arterial rings contracted with 1 μM Norepinephrine); type: cell-based; conditions: for EC50: vasodilatation of 50% of arterial ring previously contracted with 1 μM Norepinephrine, 6 to 9 rings, read-out: CE50 (average ± SD), vasodilatation
Method: Tests for In Vitro Vasodilatation. The method used in the assays is substantially the same as described in the following references: Furchgot, R. F. “Methods in nitric oxide research”. Feelisch & Stamler eds. John Wiley &Sons, Chichester, England, pp 567-581. Trongvanichnam, K, et al. Jpn J. […]., et al. Eur. J. Pharmacol. 1994; 258:47-55. The compounds are tested at 5 different concentrations, at a concentration range from 0,001 y 10 mM, using from 6 to 9 arterial rings for each compound. The obtained results are compared to those from the S-nitrosoglutathione (GSNO), which is used as reference product.

human washed platelets = assay: Tests in vitro of the increase of the intra-platelet levels of GMPc; type: cell-based; conditions: for GMPc intra-platelet level: human washed platelets
From the text: Tests In Vitro of the Increase of the Intra-platelet Levels of GMPc. […] The method used in the test is substantially the same as described in the references cited in example 8. […] The obtained results are compared to those from the GSNO (reference product) and with the basal values.

[1] = test system: human washed platelet preparations; assay: Test in vitro of the blockage of platelet aggregation inhibition by ODQ; type: cell-based; conditions: for inhibition at 0.1 µM / inhibition at 0.3 µM / inhibition at 1 µM: Homo sapiens, Platelet; for inhibition at 1 µM: 1 μM compound; for blocking of the inhibiting effect by ODQ: IC50 dose of the compounds
Method: Test In Vitro of the Blockage of Platelet Aggregation Inhibition. The method used in the test is substantially the same as described in the references cited in example 8, completed with the reference: Moro MA, et al. Pr Nat Acad Sc USA. 1996 ;93:1480-5. The ODQ is tested in vitro to block the inhibition of platelet aggregation reached by the obtained products in human washed platelet preparations. […] The obtained results are compared to those from the GSNO (reference product) and with the values in absence of ODQ.

Molecule: N[C@@H](CCC(=O)NC(C(=O)NCC(=O)O)C(Cc1ccccc1)(Cc1ccccc1)SN=O)C(=O)O (stereo partly drawn) [Product obtained in example 6, N[N-γ-L-glutamyl-2-amino-3-benzyl-3-(S-nitrosomercapto)-4-phenylbutanoyl] glycine]
- IC50 (platelets): 350 ± 110 nM

Molecule: CC(=O)NC(C(=O)O)C1(SN=O)CCOCC1 (stereo not drawn) [Product obtained in example 1, N-acetyl-2-amino-2-[4-(4-S-Nitro-somercaptotetrahydropyran) ] Acetic Acid]
- EC50 (arterial ring): 375 ± 50 nM
- IC50 (platelets): 70 ± 20 nM
- inhibiting activity on platelets aggregation compared to the reference compound (GSNO) (platelets): highly superior to that of the reference product

Molecule: CC(=O)NC(C(=O)O)C(Cc1ccccc1)(Cc1ccccc1)SN=O (stereo not drawn) [Product obtained in example 3, N-acetyl-2-amino-3-benzyl-3-S-ni-trosomercapto-4-phenyl-butanoic Acid]
- EC50 (arterial ring): 630 ± 210 nM
- IC50 (platelets): 240 ± 27 nM

- EC50 (arterial ring): 1560 ± 550 nM
- IC50 (platelets; Homo sapiens, Platelet): 480 ± 190 nM
Molecule: N[C@@H](CCC(=O)N[C@@H](CSN=O)C(=O)NCC(=O)O)C(=O)O [GSNO, S-nitrosoglutathione, reference compound]
- GMPc intra-platelet level (human washed platelets; 0.1 μM compound): 1 ± 0.5 pmol/10^9 platelets
- GMPc intra-platelet level (human washed platelets; 0.3 μM compound): 6.6 ± 0.6 pmol/10^9 platelets
- GMPc intra-platelet level (human washed platelets; 1 μM compound): 24 ± 0.5 pmol/10^9 platelets
- GMPc intra-platelet level (human washed platelets; 3 μM compound): 27.6 ± 6.0 pmol/10^9 platelets
- inhibition at 0.1 µM ([1]; 0.1 μM compound, ODQ 1 μM, read-out: % inhibition with ODQ): 0%
- inhibition at 0.1 µM ([1]; 0.1 μM compound, inhibition of the maximum aggregation, read-out: % inhibition without ODQ): 34.2 ± 25%
- inhibition at 0.3 µM ([1]; 0.3 μM compound, ODQ 1 μM, read-out: % inhibition with ODQ): 3.3 ± 3%
- inhibition at 0.3 µM ([1]; 0.3 μM compound, inhibition of the maximum aggregation, read-out: % inhibition without ODQ): 79.3 ± 17%
- inhibition at 1 µM ([1]; ODQ 1 μM, read-out: % inhibition with ODQ): 32.6 ± 0.9%
- inhibition at 1 µM ([1]; inhibition of the maximum aggregation, read-out: % inhibition without ODQ): 92.65 ± 0.9%
- blocking of the inhibiting effect by ODQ ([1]; ODQ 1 μM, in words): capable of blocking the inhibiting effect

Molecule: N[N-γ-L-glutamyl-2-amino-2-(4-(4-S-nitrosomercapto-1-methyl-piperidin))acetyl ] glycine [Product obtained in example 5]
- GMPc intra-platelet level (human washed platelets; 0.03 μM compound): 1.60 ± 0.5 pmol/10^9 platelets
- GMPc intra-platelet level (human washed platelets; 0.1 μM compound): 1.50 ± 0.4 pmol/10^9 platelets
- GMPc intra-platelet level (human washed platelets; 0.3 μM compound): 6.50 ± 0.5 pmol/10^9 platelets
- GMPc intra-platelet level (human washed platelets; 1 μM compound): 21.1 ± 0.5 pmol/10^9 platelets
- increase of intra-platelet levels of GMPc compared to GSNO (human washed platelets; in words): in a similar manner to that of the GSNO reference
- levels of GMPc at concentrations close to the IC50, compared to GSNO (human washed platelets; values close to the IC50, in words): lower as that of the GSNO
- % inhibition with ODQ ([1]; 0.003 μM compound, ODQ 1 μM): 0%
- % inhibition without ODQ ([1]; 0.003 μM compound, inhibition of the maximum aggregation): 0%
- % inhibition with ODQ ([1]; 0.01 μM compound, ODQ 1 μM): 0%
- % inhibition without ODQ ([1]; 0.01 μM compound, inhibition of the maximum aggregation): 17%
- % inhibition with ODQ ([1]; 0.03 μM compound, ODQ 1 μM): 0%
- % inhibition without ODQ ([1]; 0.03 μM compound, inhibition of the maximum aggregation): 83 ± 1.4%
- % inhibition with ODQ ([1]; 0.1 μM compound, ODQ 1 μM): 0%
- % inhibition without ODQ ([1]; 0.1 μM compound, inhibition of the maximum aggregation): 96%
- % inhibition with ODQ ([1]; 0.3 μM compound, ODQ 1 μM): 0%
- % inhibition without ODQ ([1]; 0.3 μM compound, inhibition of the maximum aggregation): 96%
- blocking of the inhibiting effect by ODQ ([1]; ODQ 1 μM, in words): capable of blocking the inhibiting effect
- blocking of the inhibition of aggregation by ODQ compared to the reference product ([1]; ODQ 1 μM, at higher doses to that of the IC50, in words): better blocked
- EC50 (arterial ring): 1890 ± 820 nM
- IC50 (platelets): 47 ± 11 nM
- inhibiting activity on platelets aggregation compared to the reference compound (GSNO) (platelets): highly superior to that of the reference product

Molecule: CC(=O)NC(C(=O)O)C1(SN=O)CCN(C)CC1 (stereo not drawn) [Product obtained in example 2, N-acetyl-2-amino-2-[4-(4-S-nitro-somercapto-1-methylpiperidin)] Acetic Acid]
- vasodilating activity compared to the reference compound (GSNO) (arterial ring; in words): highly superior to that of the reference product
- EC50 (arterial ring): 24 ± 3 nM
- IC50 (platelets): 190 ± 20 nM

Molecule: N[N-γ-L-glutamyl-2-amino-2-(4-(4—S—nitrosomercapto)tetrahydropyran)) acetyl]glycine [Product obtained in example 4]
- EC50 (arterial ring): 1730 ± 270 nM
- IC50 (platelets): 200 ± 120 nM
